The text below walks through data of patent publication US7659078B1, “Method and kit for determination of prostacyclin in plasma” (University of Kentucky Research Foundation, priority 2002, dated 2010).

To fix the notation:
B1: 1:500 conjugate: NHS ester of 6-keto-PGF1α conjugated to cysteine-free mutant aequorin at 1:500 mole ratio aequorin:6-keto-PGF1α (conjugate)
chain: VKLTPDFDNPKWIGRHKHMFNFLDVNHNGRISLDEMVYKASDIVINNLGATPEQAKRHKDAVEAFFGGAGMKYGVETEWPEYIEGWKRLASEELKRYSKNQITLIRLWGDALFDIIDKDQNGAISLDEWKAYTKSDGIIQSSEDSEETFRVSDIDESGQLDVDEMTRQHLGFWYTMDPASEKLYGGAVP

The test system of one data set is anti-6-keto-PGF1α antibody. Briefly: Binder dilution study of 6-keto-PGF1α-aequorin conjugates. The class given is binding, sheep. Particulars: 1×10^−10 M conjugate, 2 h room temperature, secondary antibody-coated plate; compared with 1:50 and 1:200 conjugates. Here is the method:
For the binder dilution studies aliquots of 100 μL of different concentrations of serially diluted anti-6-keto-PGF1α antibody, produced in sheep and 50 μL of 1×10^−10 M 6-keto-PGF1α-aequorin conjugate were placed simultaneously in microtiter plates pre-coated with a secondary antibody, donkey anti-sheep IgG. All dilutions were done in the assay buffer. The plates were incubated in dark at room temperature for 2 h with shaking at 300 rpm. Then the plates were washed with wash buffer (30 mM Tris-HCL buffer, pH 7.0, containing 2 mM EDTA, 0.15 M NaCl, and 0.1% Tween 20) three times to remove any unbound primary antibody or any unbound conjugate. Finally, the light intensity was measured as described earlier for the calibration plot.
The next step was to study the interaction between the anti-6-keto-PGF1α antibody and the conjugates. […] After washing the plate to remove any unbound antibody or conjugate the luminescence was measured. […] The effect of increased or decreased amounts of 6-keto-PGF1α antibody and/or conjugate on the dose-response curve was also evaluated. […] The dose-response curve obtained for 6-keto-PGF1α as depicted in FIG. 3, is sigmoidal in shape, with the luminescence intensity being lower at high concentrations of 6-keto-PGF1α and increasing as the concentration of 6-keto-PGF1α decreases. […]
Take B1: the “binding to 6-keto-PGF1α antibody (binder-dilution curves)” value is reported as “maximum binding”.

For a further data set, the system named is anti-6-keto-PGF1α antibody. Briefly: Cross-reactivity of related prostaglandins in the 6-keto-PGF1α aequorin bioluminescent immunoassay. The data set is classed as binding, sheep. Particulars: calculated at 50% B/B0; cross reactant used in the dose response curve instead of 6-keto-PGF1α; assay buffer. Here is the method:
Dose-Response Curve: A dose-response curve was generated for 6-keto-PGF1α by simultaneously incubating 100 μL of 6-keto-PGF1α antibody (1:10,000 dilution), 50 μL of different concentrations of the serially diluted analyte, 6-keto-PGF1α, and 50 μL of 1×10^−10 M coelenterazine bound 6-keto-PGF1α-aequorin conjugate (1:500) on microtiter plates coated with the secondary antibody. The plate was incubated in dark at room temperature for two hours with shaking at 300 rpm. The plate was washed three times with the wash buffer to remove any unbound components. The light intensity was measured as described before.
Presence of various prostaglandins other than 6-keto-PGF1α in the blood can cause non-specific binding with the 6-keto-PGF1α antibody and interfere with the detection of 6-keto-PGF1α, giving extremely high values of 6-keto-PGF1α. Therefore, it becomes important to confirm that the amount of 6-keto-PGF1α obtained from our assay is only due to 6-keto-PGF1α and no other prostaglandin. The cross-reactivities of other prostaglandins similar in structure to 6-keto-PGF1α were determined by preparing standard solutions of the compounds in the assay buffer ranging from 100,000 to 100 pg/mL and using them in this assay for 6-keto-PGF1α. The measured 6-keto-PGF1α concentration at 50% B/B0 was then calculated. The percent cross-reactivities were calculated by comparison of measured cross-reactant concentration and the actual concentration (known amount) of the cross-reactant in the sample (Table 1). It must be noted that the prostaglandins occur at different times in the arachidonic acid pathway and in different concentrations. […] The assay can, therefore, be used to measure 6-keto-PGF1α directly from plasma.
Cross-reactivities of related prostaglandins were measured by using varying concentrations of 50 μL of the cross reactant in the dose response curve instead of 6-keto-PGF1α. The percent cross-reactivities were calculated at 50% B/B0.
For `CCCCC[C@H](O)/C=C/[C@@H]1[C@@H](CC(=O)CCC(=O)O)[C@@H](O)C[C@H]1O` [2,3-dinor-6-keto-Prostaglandin F1, 2,3-dinor-6-keto-Prostaglandin F1α], the Percent cross-reactivity is 10.1%.
Take `CCCCCC(=O)CCC1C(O)CC(O)C1CC(=O)CCCCC(=O)O` (stereo not shown) [6,15-diketo-13,14-dihydro-Prostaglandin F1]: the Percent cross-reactivity was 1.83%.
Same read-out and setting: in the case of `CCCCC[C@H](O)/C=C/[C@@H]1[C@@H](CC(=O)CCCCC(=O)O)[C@@H](O)C[C@H]1O` [6-keto-Prostaglandin F1, 6-keto-Prostaglandin F1α] it was 100%; in that of `CCCCCC(=O)CCC1C(O)CC(O)C1CCCCCCC(=O)O` (stereo not shown) [13,14-dihydroxy-15-keto-Prostaglandin F1], 0.45%.
Regarding `CCCCC[C@H](O)/C=C/[C@H]1C(=O)C[C@H](O)[C@@H]1C/C=C\CCCC(=O)O` [Prostaglandin D2], the Percent cross-reactivity was 7.75%.
As for `CCCCC[C@H](O)/C=C/[C@H]1[C@H](O)CC(=O)[C@@H]1CCCCCCC(=O)O` [Prostaglandin E1], the Percent cross-reactivity is 6.75%.
Turning to `CCCCC[C@H](O)/C=C/[C@@H]1[C@@H](CCCCCCC(=O)O)[C@@H](O)C[C@H]1O` [Prostaglandin F1], the Percent cross-reactivity was 5.4%.
Same read-out and setting: in the case of `CCCCC[C@H](O)/C=C/[C@@H]1[C@@H](C/C=C\CCCC(=O)O)[C@@H](O)C[C@H]1O` [Prostaglandin F2] it was 3.41%.

System in another data set: not listed separately
The data set can be described thus: 6-keto-PGF1α in plasma of PPH patients on intravenous prostacyclin, measured directly without extraction. The data set is classed as in vivo, human. As to conditions: PPH patient plasma samples. Here is the method: The analysis of 6-keto-PGF1α directly in plasma without extraction was performed by diluting the samples 1:200 times and using 50 μL in the dose-response curve along with 100 μL 6-keto-PGF1α of antibody and 50 μL of 6-keto-PGF1α-aequorin conjugate. The analysis was performed in the same manner as the dose-response curve described before. The amount of 6-keto-PGF1α in the samples was calculated from the standard dose response curve generated in plasma. The appropriate dilution factor was taken into consideration when calculating the amount of 6-keto-PGF1α present in each sample.
For in vivo analysis plasma samples were obtained from five patients with severe pulmonary arterial hypertension and 7 normal controls. […] All patient samples were analyzed in the same manner as the dose response curve in plasma. […] The amount of 6-keto-PGF1α in the samples was calculated as described before for sample analysis without extraction. […]
In order to obtain recovery data further analysis of the samples was performed. Two of the normal plasma samples and two patient plasma samples were first analyzed using the assay without extraction. […] The amount of 6-keto-PGF1α in the samples was calculated as described before for sample analysis without extraction. The samples were analyzed in triplicates. […]
Consider `CCCCC[C@H](O)/C=C/[C@@H]1[C@H]2C/C(=C/CCCC(=O)O)O[C@H]2C[C@H]1O` [Prostacyclin], for which the “levels of 6-keto-PGF1α in plasma versus prostacyclin dose” value is “increased with increase in the prostacyclin dose”.
